The values that follow come from patent US20060110385A1, “Means and methods for diagnosing and treating affective disorders” (Affectis Pharmaceuticals AG, priority 2003, published 2006).

One data set deals with mice. Briefly: Open field test (locomotor activity) after BzATP. Format: in vivo, mouse. Particulars: 50 μM BzATP, 24 hours after injection, 30 minutes.
Data set [1] deals with T1, P2X7R (Homo sapiens, UniProt Q99572).
T1 sequence (Q99572 1-595): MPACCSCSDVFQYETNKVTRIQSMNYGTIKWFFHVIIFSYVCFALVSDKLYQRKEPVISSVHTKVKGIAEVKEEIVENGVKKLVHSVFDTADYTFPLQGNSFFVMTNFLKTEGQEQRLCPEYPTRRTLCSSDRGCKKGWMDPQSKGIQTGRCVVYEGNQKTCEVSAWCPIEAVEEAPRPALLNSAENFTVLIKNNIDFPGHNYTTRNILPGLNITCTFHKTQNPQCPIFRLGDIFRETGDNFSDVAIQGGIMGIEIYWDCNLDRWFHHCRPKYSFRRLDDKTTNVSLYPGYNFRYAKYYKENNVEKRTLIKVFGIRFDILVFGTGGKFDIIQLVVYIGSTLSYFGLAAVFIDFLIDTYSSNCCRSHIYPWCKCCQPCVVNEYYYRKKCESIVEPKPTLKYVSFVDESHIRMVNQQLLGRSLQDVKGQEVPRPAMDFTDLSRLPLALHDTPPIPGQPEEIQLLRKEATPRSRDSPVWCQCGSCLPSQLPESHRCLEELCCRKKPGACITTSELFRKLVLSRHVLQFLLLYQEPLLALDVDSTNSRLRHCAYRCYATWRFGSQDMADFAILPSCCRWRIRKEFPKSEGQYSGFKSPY
The following applies: dose response curve, Y-axis ion current; cited from earlier work.

A further data set has as its system DBA/201a mouse strain. Nature of the data set: Porsolt's forced swim test after intrahippocampal BzATP. Format: in vivo. The following applies: 50 μM BzATP, 24 hours after injection. An excerpt:
In the present example, the P2X7R agonist was directly injected into the hippocampus of mice. However, a P2X7R agonist agent or compound could also be delivered orally, subcutaneously, intravenously, intra-arterial, intranodal, intramedullary, intrathecal, intraventricular, intranasally, intrabronchial, transdermally, intrarectally, intraperitoneally, intramuscularly, intrapulmonary, vaginally, rectally, or intraocularly.
Four months old male mice were bilaterally implanted with guide cannulae (23 gauge, length 8 mm) by means of a stereotactic instrument (David Kopf Instruments). The coordinates, in relation to bregma, were −2.0 mm posterior, ±1.0 mm lateral, and −1.0 mm ventral. After surgery, the mice were allowed to recover for 10 to 12 days. […] Injections were performed using a 9 mm-30 gauge needle inserted into the guide cannulae and connected via tubing to a 10 μl Hamilton syringe.
The forced swim test is a standard test that measures primary stress-induced reductions in avoidance or escape, termed behavioural despair. The test is used to determine the effectiveness of antidepressants, test new pharmaceutical compounds and validate animal models of depression (Porsolt et al., Arch. Int. Pharmacodym. 229 (1977), 327-336; Porsolt, Rev. Neurosci. 11 (2000), 53-58; Rénéric et al., Behav. Brain Res. 136 (2002), 521-532; Page et al., Psychopharmacology 165 (2003), 194-201; Kelliher et al., Psychoneuroendocrinology 28 (2003), 332-347). The test consists of placing a mouse for a period of 5 minutes into a glass cylinder containing water. Under such circumstances, the mouse cannot touch the bottom of the cylinder and is thus forced to swim. Time, latency and frequency of struggling versus floating are scored as behavioural parameters. […] Increased struggling (i.e. active attempts to escape) indicates active coping behaviour that can be interpreted as an improvement of depression-like symptoms. For example, treatment with serotonergic antidepressants reduce the total time spent floating (Borsini, Neurosci. Biobehav. Rev. 19 (1995), 377-395; Redrobe and Bourin, Psychopharmacology 138 (1998), 198-206, and in parallel increases the time of active behaviour (i.e. swimming or struggling; Lucki et al., Psychopharmacology 155 (2001), 315-322).

For data set [2], the target named is T1, P2X7R. Briefly: Calcium entry (Fluo-4 AM) in HT-22 cells overexpressing human P2X7R. Format: cell-based. Details: expressed in transfected cells. The following applies: 20 μM BzATP or 50 μM tenidap. The text has this:
Yet another method for identifying P2X7R agonists was devised by generating a immortalised mouse cell line that overexpresses the human P2X7R gene under the control of the human cytomegalovirus (CMV) early promoter/enhancer region. The human P2X7R cDNA was inserted into the pcDNA3.1 vector (Invitrogen) and transfected into the mouse hippocampal cell line HT-22 using Lipofectamine (Invitrogen) according to the manufacturer's specifications. One day after transfection, culture medium containing 500 μg/ml G418 was added to the cells. Resistant clones were separately isolated and cultured 14 days after applying the selection medium.
The agonistic activity of a compound was evaluated by measuring calcium entry in the cells that overexpress the human P2X7R. Cells were cultured in 96 well plates and incubated at 37° C. with 5% CO2 DMEM with 10% foetal calf serum (Gibco) until they reached confluence. Cells were then loaded for one hour with 10 μM of Fluo-4 AM (Molecular Probes). Fluo-4 AM is a fluorescent dye that binds to intracellular calcium. […] Agonist activity was detected by measuring an increase in calcium influx which results in increased binding to Fluo-4 AM and increased fluorescence. Changes in fluorescence signal are measured using a Fluostar Optima plate reader (BMG biotech). […] Thus, both compound stimulated the activity of P2X7R which results in an influx of ions into the cells.

Setting [3] is: 1 μl each side, not supported statistically.
Setting [4] is: 1 μl each side, statistically significant.

Experimental for mice: Locomotor activity was monitored for a period of 30 minutes using a video camera. Overall distance travelled by the animals during the testing period was then analysed by means of VideoMot2 computer software (TSE GmbH, Bad Homburg).

In the case of “2′-3′-O-(4-Benzoylbenzoyl)adenosine 5′-triphosphate [BzATP]”, in the data set on mice, the “locomotor activity (overall distance travelled)” value is reported as “No difference in locomotor activity”. Moreover, the EC50 on P2X7R [1] was 8 µM. Also, the time of struggling result with DBA/201a mouse strain (1 μl each side of hippocampus, statistically significant) is “increase”. Moreover, in the data set on DBA/201a mouse strain (setting [3]), the frequency of struggling result was “increase”, the latency of struggling result is listed as “decrease” and the time of floating entry is reported as “decrease”. Moreover, in the data set with DBA/201a mouse strain (setting [4]), the frequency of floating result is “decrease” and the latency of floating result is listed as “increase”. Also, on P2X7R [2], the “fluorescence intensity (calcium influx, Fluo-4 AM)” value is on record as “rapid increase in fluorescence intensity”.

Broadly, the EC50 is the concentration needed to bring the measured effect to its halfway point.
